The test system of one data set is P. aeruginosa PA01. Kind of data set: microbe, parasite or virus in culture. It is filed as cell-based. The note with it: for Bacterial MIC: P. aeruginosa 15692 (PAO1), Week 2 (12/14/2023). How it is done:
Antimicrobial susceptibility testing of the 20 synthesized peptides against 17 bacterial strains of clinical relevance in the ESKAPEE panel was conducted using minimum inhibitory concentration (MIC) assays following the broth microdilution method outlined by Parker et al.[91]. The ESKAPEE panel is comprised of fourteen American Type Culture Collection (ATCC) strains and three Multidrug Resistant Organism Repository and Surveillance Network (MRSN) bacterial strains. These strains represent at least one drug-susceptible strain and one drug-resistant strain for each bacterium to assess drug efficacy across various resistance mechanisms. This panel is comprised of the following bacterial species and strains: E. faecium (ATCC 19434, ATCC 49224), S. aureus (ATCC 25923, ATCC 43300), K. pneumoniae (ATCC 700603, ATCC 13883, MRSN 1320), A. baumannii (ATCC 17978, ATCC 19606, MRSN 959), P. aeruginosa (ATCC 15692, ATCC 27853, MRSN 5519), E. cloacae (ATCC 13047, ATCC 35549), and E. coli (ATCC 35218, ATCC 43888). Bacteria were grown in cation-adjusted Mueller-Hinton broth (CAMHB) to achieve a final inoculum of 1 × 10⁵ CFU/mL. CAMHB is selected for its batch-to-batch reproducibility, low levels of antimicrobial inhibitors, and ability to support the growth of most bacterial pathogens.
Briefly, lyophilized peptides were dissolved in 0.2% TFA + 0.4% BSA in water to 2.56 mg/mL, ultrasonicated for 20 min, diluted 10-fold into CAMHB, and then serially diluted 2-fold in 0.02% TFA + 0.04% BSA in CAMHB and assayed at a concentration of 0.25 to 128 μg/mL. Assays were set up using the Tecan Freedom EVO liquid handling robot and software (Tecan, Switzerland) with 50 μL of bacterial inoculum and 50 μL of peptide transferred into round-bottom 96-well microtiter plates. Each plate assay was performed in duplicate and incubated at 37 °C for 20 h without agitation. Bacterial growth was assessed using the BIOMIC V3 Image Analysis system (Giles Scientific, USA) and the MIC values were determined visually according to the Clinical and Laboratory Standards Institute (CLSI) guidelines.

In a further data set the test system is A. baumannii ATCC 17978. Kind of data set: microbe, parasite or virus in culture. To be noted: for Bacterial MIC: ATCC 17978, 20 h. The procedure, abridged: (§1)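 Broth microdilution MIC in cation-adjusted Mueller-Hinton broth, final inoculum 1 × 10⁵ CFU/mL. Peptides in 0.02% TFA + 0.04% BSA, 2-fold series 0.25 to 128 μg/mL, duplicate, 37 °C for 20 h without agitation. Growth imaged; MIC read visually per CLSI.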

Another data set relates to E. cloacae ATCC 13047. Kind of data set: microbe, parasite or virus in culture. The note with it: for Bacterial MIC: ATCC 13047, 20 h. Summed up:
as §1

Another data set relates to K. pneumoniae ATCC 13883. The data set is described as follows: microbe, parasite or virus in culture. To be noted: for Bacterial MIC: ATCC 13883, 20 h. Summed up:
as §1

In another data set the test system is E. cloacae ATCC 35549. The data set is described as follows: microbe, parasite or virus in culture. To be noted: for Bacterial MIC: ATCC 35549, 20 h. The procedure, abridged:
as §1

Another data set deals with E. faecium ATCC 49224. The data set is described as follows: microbe, parasite or virus in culture. To be noted: for Bacterial MIC: ATCC 49224, 20 h. Summed up:
as §1

Another data set has as its system A. baumannii ATCC 19606. The data set is described as follows: microbe, parasite or virus in culture. The note with it: for Bacterial MIC: ATCC 19606, 20 h. The procedure, abridged: as §1
A further data set relates to P. aeruginosa MRSN 5519. The data set is described as follows: microbe, parasite or virus in culture. The note with it: for Bacterial MIC: MRSN 5519, 20 h. The procedure, abridged: as §1
Another data set concerns E. coli ATCC 43888. Kind of data set: microbe, parasite or virus in culture. The note with it: ATCC 43888, 20 h. Summed up:
as §1

Another data set concerns E. coli ATCC 35218. Kind of data set: microbe, parasite or virus in culture. The procedure, abridged: as §1
The test system of a further data set is S. aureus ATCC 43300. Kind of data set: microbe, parasite or virus in culture. To be noted: S. aureus 43300; for Bacterial MIC: Week 2 (12/14/2023). The procedure, abridged:
as §1

The test system of the next data set is P. aeruginosa ATCC 27853. Kind of data set: microbe, parasite or virus in culture. To be noted: for Bacterial MIC: ATCC 27853, 20 h. Summed up: as §1
For a further data set, the system named is S. aureus ATCC 25923. Kind of data set: microbe, parasite or virus in culture. To be noted: for Bacterial MIC: ATCC 25923, 20 h. Summed up: as §1
A further data set deals with E. faecium ATCC 19434. The data set is described as follows: microbe, parasite or virus in culture. To be noted: for Bacterial MIC: ATCC 19434, 20 h. The procedure, abridged:
as §1

Data set [1] has as its system K. pneumoniae ATCC 700603. Kind of data set: microbe, parasite or virus in culture. To be noted: K. pneumoniae 700603; for Bacterial MIC: Week 2 (12/14/2023). The procedure, abridged: as §1
A further data set relates to K. pneumoniae 4640. To be noted: for Bacterial MIC: 4640, 20 h.
A further data set concerns A. baumannii 5075. The note with it: for Bacterial MIC: Week 2 (12/14/2023).
A further data set concerns P. aeruginosa PA01 (Si). Kind of data set: microbe, parasite or virus in culture. The format is cell-based. The note with it: Si. From the text: Supplement 41522_2025_837_MOESM13_ESM.xlsx, sheet "Table_S13_ESKAPEE-MIC" | column: Bacterial MIC (µg/mL)
Details of data set [2]: method as in Biomatik (vendor). The note with it: 1.0 mg peptide in 1.0 ml solvent; peptides synthesized by Biomatik; ref Biomatik (vendor); cited from earlier work.
[3] abbreviates: CAMHB, 1 × 10⁵ CFU/mL, 0.25 to 128 μg/mL, 37 °C 20 h, duplicate, read visually (CLSI).
[4] abbreviates: E. coli 35218, Week 2 (12/14/2023).

≈ marks a conversion by molar mass, not a printed value. Ends that are not written are not given here. Peptide text beside a SMILES is read from it.

As to `CC[C@H](C)[C@H](NC(=O)[C@H](CO)NC(=O)[C@H](CO)NC(=O)[C@H](Cc1ccccc1)NC(=O)[C@H](CS)NC(=O)CNC(=O)CNC(=O)[C@H](CCCNC(=N)N)NC(=O)[C@H](CCCNC(=N)N)NC(=O)[C@H](Cc1ccc(O)cc1)NC(=O)[C@H](CS)NC(=O)[C@H](CC(N)=O)NC(=O)[C@H](Cc1c[nH]c2ccccc12)NC(=O)[C@@H]1CCCN1C(=O)[C@H](CCCNC(=N)N)NC(=O)[C@H](C)NC(=O)[C@H](CCCNC(=N)N)NC(=O)[C@H](CCCNC(=N)N)NC(=O)[C@@H](NC(=O)[C@H](CCCNC(=N)N)NC(=O)[C@@H](NC(=O)[C@H](CCCNC(=N)N)NC(=O)[C@H](CCCCN)NC(=O)[C@@H](N)CC(C)C)[C@@H](C)O)C(C)C)C(=O)NCC(=O)N[C@@H](CO)C(=O)N[C@@H](CC(C)C)C(=O)N[C@H](C(=O)N1CCC[C@H]1C(=O)N[C@H](C(=O)O)C(C)C)[C@@H](C)O` [Pcin-CATH3] (H-LKRTRVRRARPWNCYRRGGCFSSIGSLTPV-OH; N-terminus and C-terminus assumed), the MIC in the data set with P. aeruginosa PA01 (20 h) was 32 µg/mL (≈ 9.16 µM); in the data set with A. baumannii ATCC 17978 (A. baumannii 17978, CAMHB, 1 × 10⁵ CFU/mL, 0.25 to 128 μg/mL, 37 °C 20 h, duplicate, read visually (CLSI)), 64 µg/mL (≈ 18.3 µM); against E. cloacae ATCC 13047 (E. cloacae 13047, CAMHB, 1 × 10⁵ CFU/mL, 0.25 to 128 μg/mL, 37 °C 20 h, duplicate, read visually (CLSI)), greater than 128 µg/mL; against K. pneumoniae ATCC 13883 (K. pneumoniae 13883, CAMHB, 1 × 10⁵ CFU/mL, 0.25 to 128 μg/mL, 37 °C 20 h, duplicate, read visually (CLSI)), greater than 128 µg/mL; against E. cloacae ATCC 35549 (E. cloacae 35549, CAMHB, 1 × 10⁵ CFU/mL, 0.25 to 128 μg/mL, 37 °C 20 h, duplicate, read visually (CLSI)), greater than 128 µg/mL; with E. faecium ATCC 49224 (E. faecium 49224, CAMHB, 1 × 10⁵ CFU/mL, 0.25 to 128 μg/mL, 37 °C 20 h, duplicate, read visually (CLSI)), greater than 128 µg/mL. Also, the MIC in the data set with A. baumannii ATCC 19606 (A. baumannii 19606, CAMHB, 1 × 10⁵ CFU/mL, 0.25 to 128 μg/mL, 37 °C 20 h, duplicate, read visually (CLSI)) was 64 µg/mL (≈ 18.3 µM); in the data set with P. aeruginosa MRSN 5519 (P. aeruginosa 5519, CAMHB, 1 × 10⁵ CFU/mL, 0.25 to 128 μg/mL, 37 °C 20 h, duplicate, read visually (CLSI)), greater than 128 µg/mL; with E. coli ATCC 35218 (ATCC 35218, 20 h), greater than 128 µg/mL; in the data set on S. aureus ATCC 43300 (setting [3]), greater than 128 µg/mL; with P. aeruginosa ATCC 27853 (P. aeruginosa 27853, CAMHB, 1 × 10⁵ CFU/mL, 0.25 to 128 μg/mL, 37 °C 20 h, duplicate, read visually (CLSI)), greater than 128 µg/mL; against S. aureus ATCC 25923 (S. aureus 25923, CAMHB, 1 × 10⁵ CFU/mL, 0.25 to 128 μg/mL, 37 °C 20 h, duplicate, read visually (CLSI)), greater than 128 µg/mL. In addition, the MIC with E. faecium ATCC 19434 (E. faecium 19434, CAMHB, 1 × 10⁵ CFU/mL, 0.25 to 128 μg/mL, 37 °C 20 h, duplicate, read visually (CLSI)) is greater than 128 µg/mL; in [1] (setting [3]), greater than 128 µg/mL; against K. pneumoniae 4640 (K. pneumoniae 4640, CAMHB, 1 × 10⁵ CFU/mL, 0.25 to 128 μg/mL, 37 °C 20 h, duplicate, read visually (CLSI)), greater than 128 µg/mL; in the data set with A. baumannii 5075 (setting [3]) it was 16 µg/mL (≈ 4.58 µM). Also, the “Bacterial MIC” value with E. coli ATCC 43888 came to 64 µg/mL; with E. coli ATCC 35218 (ATCC 35218, 20 h), 128 µg/mL; in the data set on P. aeruginosa PA01 (Si), 32 µg/mL. Further, the “Suggest solvent (solubility)” value in data set [2] is 1.0mg peptide soluble in 1.0ml H2O.

For KRAGYARMIR [PrAd-Eb18], the “Bacterial MIC” value with P. aeruginosa PA01, in the data set on A. baumannii ATCC 17978, in the data set on E. cloacae ATCC 13047, with K. pneumoniae ATCC 13883, in the data set on E. cloacae ATCC 35549 and in the data set on E. faecium ATCC 49224 was greater than 128.000 µg/mL throughout. The “Bacterial MIC” value in the data set with A. baumannii ATCC 19606, with P. aeruginosa MRSN 5519, in the data set with E. coli ATCC 43888, with E. coli ATCC 35218 (setting [4]), in the data set on S. aureus ATCC 43300 and in the data set with P. aeruginosa ATCC 27853 was greater than 128.000 µg/mL throughout. Further, the “Bacterial MIC” value (in the data set with S. aureus ATCC 25923; with E. faecium ATCC 19434; in data set [1]; in the data set with K. pneumoniae 4640; in the data set on A. baumannii 5075; in the data set with P. aeruginosa PA01 (Si)) was greater than 128.000 µg/mL each time. Also, the “Suggest solvent (solubility)” value in [2] is recorded as 1.0mg peptide soluble in 1.0ml H2O.

Regarding NANGASNANGASYANGASN [TrPr-Pc34], the “Bacterial MIC” value with P. aeruginosa PA01, in the data set with A. baumannii ATCC 17978, in the data set on E. cloacae ATCC 13047, in the data set on K. pneumoniae ATCC 13883, in the data set on E. cloacae ATCC 35549 and in the data set on E. faecium ATCC 49224 was greater than 128.000 µg/mL each time. In addition, the “Bacterial MIC” value with A. baumannii ATCC 19606, with P. aeruginosa MRSN 5519, in the data set with E. coli ATCC 43888, in the data set with E. coli ATCC 35218 (setting [4]), in the data set on S. aureus ATCC 43300 and in the data set with P. aeruginosa ATCC 27853 was greater than 128.000 µg/mL throughout. Also, the “Bacterial MIC” value (in the data set on S. aureus ATCC 25923; in the data set with E. faecium ATCC 19434; in data set [1]; in the data set with K. pneumoniae 4640; in the data set on A. baumannii 5075; with P. aeruginosa PA01 (Si)) was greater than 128.000 µg/mL throughout. For the same compound, in data set [2], the “Suggest solvent (solubility)” value is on record as 1.0mg peptide soluble in 1.0ml H2O.

Source of the values: publication PMC12635268, “Novel antimicrobial peptides and peptide-microbiome crosstalk in Appalachian salamander skin” (NPJ Biofilms and Microbiomes, 2025).
